Measured values published in ChEMBL document CHEMBL1921759, “Antiprotozoal activity of proton-pump inhibitors” (Bioorg Med Chem Lett, 2011).

Legend:
Format in all cases: functional, organism-based
Trichomonas vaginalis [1] = assay: Antiprotozoan activity against Trichomonas vaginalis
Giardia intestinalis [2] = assay: Antiprotozoan activity against Giardia intestinalis; details: Giardia duodenalis
Trichomonas vaginalis [3] = assay: Antiprotozoan activity against Trichomonas vaginalis GT3 trophozoites compound treated for 48 hrs measured after 48 hrs washout period; details: GT3, 48 h
Giardia intestinalis [4] = assay: Antiprotozoan activity against Giardia intestinalis IMSS:0989:1 trophozoites compound treated for 48 hrs measured after 48 hrs washout period; details: Giardia duodenalis, IMSS:0989:1, 48 h
Entamoeba histolytica = assay: Antiprotozoan activity against Entamoeba histolytica HM1-IMSS trophozoites compound treated for 48 hrs measured after 48 hrs washout period

| IC50 (Trichomonas vaginalis [1]) | IC50 (Giardia intestinalis [2]) | SMILES | IC50 (Trichomonas vaginalis [3]) | IC50 (Giardia intestinalis [4]) | IC50 (Entamoeba histolytica) |
| --- | --- | --- | --- | --- | --- |
| 72 nM | 20 nM | CN(C)CCSc1nc2c(Cl)cc(Cl)cc2[nH]1 | – | – | – |
| – | – | Cc1c(OCC(F)(F)F)ccnc1C[S+]([O-])c1nc2ccccc2[nH]1 (centres undefined) [LANSOPRAZOLE] | 122 nM | 73.1 nM | 347 nM |
| – | – | COc1ccc2[nH]c([S+]([O-])Cc3ncc(C)c(OC)c3C)nc2c1 (centres undefined) [OMEPRAZOLE] | 122 nM | 95.5 nM | 492 nM |
| – | – | COc1ccnc(C[S+]([O-])c2nc3cc(OC(F)F)ccc3[nH]2)c1OC (centres undefined) [PANTOPRAZOLE] | 75.6 nM | 15.7 nM | 2.6 nM |
| – | – | COCCCOc1ccnc(C[S+]([O-])c2nc3ccccc3[nH]2)c1C (centres undefined) [RABEPRAZOLE] | 106 nM | 18.1 nM | 23.7 nM |
